Values quoted from earlier work as cited in patent US7718642B2, “AIDS prophylactic lubricating composition” (priority 1993, dated 2010).

Experiments:
HIV [1] = system: HIV
[2] = previous studies (Int J STD & AIDS); read-out: CC50 value (50% toxic dose)
sperm cells = conditions: diffusion into cervical mucous
[3] = in vivo
HIV [4] = conditions: used as contraceptive during sexual relations; J. Kreiss et al, JAMA 1992

| Molecule | selectivity value (HIV [1]; CC50/IC50, previous studies (Int J STD & AIDS)) | IC50 (HIV [1]; previous studies (Int J STD & AIDS), read-out: IC50 value (50% inhibitory dose)) [nM] | CC50 [2] [nM] | Concentration that effectively destroys the envelope of viruses (viruses) | Concentration that restricts penetration of sperm cells and causes loss of mobility (sperm cells) | Undesirable side effects [3] | Prevention of HIV transmission (HIV [4]) |
| --- | --- | --- | --- | --- | --- | --- | --- |
| [H]/N=C(\N/C(=N/[H])NCCCCCCNC(=N)NC(=N)Nc1ccc(Cl)cc1)Nc1ccc(Cl)cc1 [chlorhexidine] | 5.2 | 250 | 1300 | above 0.1% | above 0.1% | does not produce any undesirable side effects |  |
| nonoxynol-9 |  |  |  |  |  |  | did not prevent HIV transmission |
